Laboratory results from PMC12388496, “Discovery of (E)-1,3-Diphenyl-2-Propen-1-One Derivatives as Potent and Orally Active NLRP3 Inflammasome Inhibitors for Colitis” (Molecules, 2025).

Assays:
[1] = tested on: IL-1β secretion in BMDM cells (NLRP3 inflammasome); assay: ELISA of IL-1β secretion in LPS/nigericin-treated BMDM cells; format: cell-based; conditions: Mus musculus; 20 µM; LPS/nigericin-treated BMDM cells; mean ± S.E.M. (n = 3); read-out: IL-1β Inhibition Rate (%)
Description: When L929 cells reach the logarithmic phase, collect the cell supernatant. Filter the supernatant using a 0.22 μm filter and store it at −20 °C for future use. The 7-week-old C57BL/6 mice were selected as the source of primary bone marrow macrophages. The mice were euthanized using the cervical dislocation method. The ends of the femurs were cut, and the bone marrow was flushed into a 15 mL centrifuge tube using a 5 mL syringe. Once all the bone marrow was collected, an appropriate amount of red blood cell lysis buffer was added to the centrifuge tube. The mixture was incubated for 3–5 min, with repeated pipetting to thoroughly lyse the red blood cells. The cells were then centrifuged and collected. Add 30–40% L929 cell supernatant or M-CSF stimulatory factor to the culture dish. Culture the cells in a cell incubator at 37 °C with 5% CO2. Observe the cell condition daily, and once most cells have adhered to the surface, proceed with subsequent experiments.
Inoculate 1.0 × 10^5 BMDMs cells per well into a 96 well plate and culture overnight. Stimulate the cells with lipopolysaccharide (LPS) at a concentration of 0.2 μg/mL for 3 h, then add different concentrations of the test compounds and incubate for 30 min. Finally, add Nigericin at a concentration of 10 μM to continue the induction for 30 min. Collect the cell supernatant and measure the IL-1β secretion level in the supernatant using an ELISA kit, following the instructions provided, and calculate the IC50 value based on the relevant calculations. To ensure the accuracy and reliability of the experimental results, all experiments were repeated three times, with each experiment performed independently.

[2] = MTT assay, HepaRG cytotoxicity; format: cell-based; conditions: human, HepaRG cells, n = 3
Description: HepaRG cells in the logarithmic growth phase (10^5 cells/mL), inoculate them into a 96-well plate, and culture overnight in a 37 °C, 5% CO2 incubator. Add compounds at different concentrations and continue culturing for 24 h. Add 20 μL of MTT solution, incubate for 4 h, discard the supernatant, and add DMSO to dissolve.

SMILES | inhibition at 20 µM [1] | IC50 at 24 h [2]
O=C(/C=C/c1ccccc1O)c1ccccc1 [Compound F1] | 52.1 ± 3.72% | > 50 µM
COc1cccc(C(=O)/C=C/c2cccc(O)c2)c1 [Compound F3, (E)-3-(3-hydroxyphenyl)-1-(3-methoxyphenyl)propyl-2-en-1-one] | 93.4 ± 2.98% | > 50 µM
O=C(/C=C/c1cccc(O)c1)c1ccccc1 [Compound F4, (E)-3-(3-hydroxyphenyl)-1-phenylpropyl-2-en-1-one] | 25.6 ± 9.03% | > 50 µM
COc1ccc(C(=O)/C=C/c2cccc(O)c2)cc1 [Compound F6, (E)-3-(3-hydroxyphenyl)-1-(4-methoxyphenyl)propyl-2-en-1-one] | 25.1 ± 2.84% | > 50 µM
O=C(/C=C/c1ccccc1O)c1ccccc1Cl [Compound F7, (E)-1-(2-chlorophenyl)-3-(2-hydroxyphenyl)propyl-2-en-1-one] | 94.8 ± 3.29% | > 50 µM
O=C(/C=C/c1ccccc1O)c1ccc(Cl)cc1 [Compound F8, (E)-1-(4-chlorophenyl)-3-(2-hydroxyphenyl)propyl-2-en-1-one] | 45.9 ± 3.45% | > 50 µM
O=C(/C=C/c1ccccc1O)c1ccc(Br)cc1 [Compound F9, (E)-1-(4-bromophenyl)-3-(2-hydroxyphenyl)propyl-2-en-1-one] | 28.4 ± 5.76% | > 50 µM
O=C(/C=C/c1cccc(O)c1)c1ccc(Br)cc1 [Compound F10, (E)-1-(4-bromophenyl)-3-(3-hydroxyphenyl)propyl-2-en-1-one] | 24.2 ± 7.91% | > 50 µM
Cc1ccc(C(=O)/C=C/c2ccccc2O)c(C)c1 [Compound F11, (E)-1-(2,4-dimethylphenyl)-3-(2-hydroxyphenyl)propyl-2-en-1-one] | 88.7 ± 9.22% | > 50 µM
Cc1ccc(C(=O)/C=C/c2cccc(O)c2)cc1C [Compound F12, (E)-1-(3,4-dimethylphenyl)-3-(3-hydroxyphenyl)propyl-2-en-1-one] | 15.4 ± 4.13% | > 50 µM
O=C(/C=C/c1cccc(O)c1)c1cccc(F)c1 [Compound F13, (E)-1-(3-fluorophenyl)-3-(3-hydroxyphenyl)propyl-2-en-1-one] | 34 ± 8.74% | > 50 µM
O=C(/C=C/c1ccccc1O)c1cccc2ccccc12 [Compound F15, (E)-3-(2-hydroxyphenyl)-1-(naphthale-1-yl)propyl-2-en-1-one] | 91.7 ± 5.89% | > 50 µM
O=C(/C=C/c1ccccc1O)c1cccs1 [Compound F16, (E)-3-(2-hydroxyphenyl)-1-(thiophene-2-yl)propion-2-en-1-one] | 92.6 ± 3.23% | > 50 µM
O=C(/C=C/c1ccc(O)cc1)c1ccccc1 [Compound W1, (E)-3-(4-hydroxyphenyl)-1-phenylprop-2-en-1-one] | 17.8 ± 3.45% | > 50 µM
COc1cccc(C(=O)/C=C/c2ccc(O)cc2)c1 [Compound W2, (E)-3-(4-hydroxyphenyl)-1-(3-methoxyphenyl)propyl-2-en-1-one] | 67 ± 1.23% | > 50 µM
O=C(/C=C/c1ccc(O)cc1)c1cccc(Cl)c1 [Compound W3, (E)-1-(3-chlorophenyl)-3-(4-hydroxyphenyl)propyl-2-en-1-one] | 21.8 ± 9.56% | > 50 µM
COc1ccc(C(=O)/C=C/c2ccc(O)cc2)cc1 [Compound W4, (E)-3-(4-hydroxyphenyl)-1-(4-methoxyphenyl)propyl-2-en-1-one] | 6.89 ± 4.78% | > 50 µM
O=C(/C=C/c1ccc(O)cc1)c1ccccc1Cl [Compound W5, (E)-1-(2-chlorophenyl)-3-(4-hydroxyphenyl)propion-2-en-1-one] | 51.7 ± 2.23% | > 50 µM
O=C(/C=C/c1ccc(O)cc1)c1ccc(Cl)cc1 [Compound W7, (E)-1-(4-chlorophenyl)-3-(4-hydroxyphenyl)propyl-2-en-1-one] | 24.3 ± 3.67% | > 50 µM
Cc1ccc(C(=O)/C=C/c2ccc(O)cc2)c(C)c1 [Compound W8, (E)-1-(2,4-dimethylphenyl)-3-(4-hydroxyphenyl)propyl-2-en-1-one] | 88.9 ± 5.91% | > 50 µM
Cc1ccc(C(=O)/C=C/c2ccc(O)cc2)cc1C [Compound W9, (E)-1-(3,4-dimethylphenyl)-3-(4-hydroxyphenyl)propyl-2-en-1-one] | 10.3 ± 6.43% | > 50 µM
O=C(/C=C/c1ccc(O)cc1)c1cccc(F)c1 [Compound W10, (E)-1-(3-fluorophenyl)-3-(4-hydroxyphenyl)propyl-2-en-1-one] | 33.6 ± 3.21% | > 50 µM
O=C(/C=C/c1ccc(O)cc1)c1cccc2ccccc12 [Compound W11, (E)-3-(4-hydroxyphenyl)-1-(naphthalene-1-yl)propyl-2-en-1-one] | 88.3 ± 7.01% | > 50 µM
CC(C)(O)c1coc(S(=O)(=O)NC(=O)Nc2c3c(cc4c2CCC4)CCC3)c1 [MCC950, reference compound] | – | > 50 µM
